Data reported in US12251411B2, “Methods of treating endometrial cancer using hemp extract” (Ecofibre USA Inc., priority 2021, dated 2025).
Values after ≈ are worked out from the molar mass of the structure shown. Where two headings read alike, the source gives them in different places.

Columns and labels:
[1] = system: patient derived endometrial cancer organoids; assay: Patient-derived endometrial cancer organoid viability: chemotherapeutic agent alone or with IC50 dose of cannabis extract
Procedure: To perform these experiments, we used cells from patient 4 (see, e.g., FIGS. 7A and 7C) to test grade 2 endometrial cancer and cells from patient 12 (see, e.g., FIGS. 7B-7D) to test grade 3 endometrial cancer. […] Methods concerning producing organoids from human tissue samples are provided in the Methods section at the end of this document.
(§1) Individual patient cell organoids were cultured separately in different plates.
(§2) The same IC50 dose was given with each incremental dose of chemotherapeutic agent.

[2] = cited from earlier work
[3] = cited from earlier work; remark: listed apart in the source
[4] = system: organoids derived from ovarian cancer tissue; assay: Impact of pH on viability of ovarian cancer organoids treated with cannabis extracts; type: cell-based; conditions: 10 μg/mL; pH 8
Excerpt: In this set of experiments, organoids were derived from ovarian cancer tissue.

P-glycoprotein = P-glycoprotein (Homo sapiens, UniProt P08183); conditions: in vitro; cited from earlier work
[5] = system: patient derived endometrial cancer tumors; assay: Patient-derived xenograft mice: change in endometrial cancer tumor volume with cannabis extracts alone; type: in vivo
Procedure: Generally, EC stem cells from the same patients that participated in the organoid studies of FIG. 7, were injected into the mice, and allowed to grow. After tumors reached a certain size, the mice were either injected (3 times/week) with the extract-delivery vehicle or with the particular cannabis extract. After a certain amount of time elapsed, tumor size was measured. The details regarding patient-derived xenograft methodology and experimental protocol are provided in the Methods section.
The % change is an average number taken from tumor volumes of three mice compared to the starting average tumor volume on day 0 of treatment. Change can either be positive (tumor increases in size) or negative (tumor decreases in size).
Human patient cells from endometrial cancer were injected subcutaneously into female NOD/SCID gamma mice after resuspending in 100 μL solution. […] Tumor size was measured before treatment, followed by twice a week measurements. All treatment group mice were kept alive for up to 10 weeks after drug injection or until the tumor volume grows bigger than 2500 mm^3.

[6] = system: endometrial cancer patient derived organoids; assay: Viability of patient-derived endometrial cancer organoids treated with cannabis extracts (CellTiter-Glo); conditions: for IC50: Homo sapiens; for viable organoids in words: 7 and 10 μg/mL
Procedure: For this set of experiments, we obtained tissue samples from a new set of 12 patients, each having grade 1, grade 2, or grade 3 endometrial cancer. Cells from these patients were prepared as described in the Methods section below.
as §1, §2

CYP2C19 = CYP2C19 (Homo sapiens, UniProt P33261); conditions: in vitro; cited from earlier work
Sequence of CYP2C19 (P33261 whole entry, species assumed): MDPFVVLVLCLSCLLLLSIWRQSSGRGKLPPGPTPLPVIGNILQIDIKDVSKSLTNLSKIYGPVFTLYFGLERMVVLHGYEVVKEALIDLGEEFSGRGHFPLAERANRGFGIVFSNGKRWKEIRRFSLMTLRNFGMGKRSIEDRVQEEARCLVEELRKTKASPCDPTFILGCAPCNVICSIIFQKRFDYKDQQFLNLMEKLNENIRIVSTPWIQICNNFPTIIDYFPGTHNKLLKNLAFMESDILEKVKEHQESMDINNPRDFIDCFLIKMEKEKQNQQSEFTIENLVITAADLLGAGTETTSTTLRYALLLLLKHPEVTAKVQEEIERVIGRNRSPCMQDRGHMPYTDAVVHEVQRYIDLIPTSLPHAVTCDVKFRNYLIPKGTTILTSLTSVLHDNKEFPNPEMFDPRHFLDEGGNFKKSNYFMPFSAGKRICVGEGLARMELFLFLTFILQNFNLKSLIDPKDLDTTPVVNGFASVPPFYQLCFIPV

Sequence of P-glycoprotein (P08183 whole entry): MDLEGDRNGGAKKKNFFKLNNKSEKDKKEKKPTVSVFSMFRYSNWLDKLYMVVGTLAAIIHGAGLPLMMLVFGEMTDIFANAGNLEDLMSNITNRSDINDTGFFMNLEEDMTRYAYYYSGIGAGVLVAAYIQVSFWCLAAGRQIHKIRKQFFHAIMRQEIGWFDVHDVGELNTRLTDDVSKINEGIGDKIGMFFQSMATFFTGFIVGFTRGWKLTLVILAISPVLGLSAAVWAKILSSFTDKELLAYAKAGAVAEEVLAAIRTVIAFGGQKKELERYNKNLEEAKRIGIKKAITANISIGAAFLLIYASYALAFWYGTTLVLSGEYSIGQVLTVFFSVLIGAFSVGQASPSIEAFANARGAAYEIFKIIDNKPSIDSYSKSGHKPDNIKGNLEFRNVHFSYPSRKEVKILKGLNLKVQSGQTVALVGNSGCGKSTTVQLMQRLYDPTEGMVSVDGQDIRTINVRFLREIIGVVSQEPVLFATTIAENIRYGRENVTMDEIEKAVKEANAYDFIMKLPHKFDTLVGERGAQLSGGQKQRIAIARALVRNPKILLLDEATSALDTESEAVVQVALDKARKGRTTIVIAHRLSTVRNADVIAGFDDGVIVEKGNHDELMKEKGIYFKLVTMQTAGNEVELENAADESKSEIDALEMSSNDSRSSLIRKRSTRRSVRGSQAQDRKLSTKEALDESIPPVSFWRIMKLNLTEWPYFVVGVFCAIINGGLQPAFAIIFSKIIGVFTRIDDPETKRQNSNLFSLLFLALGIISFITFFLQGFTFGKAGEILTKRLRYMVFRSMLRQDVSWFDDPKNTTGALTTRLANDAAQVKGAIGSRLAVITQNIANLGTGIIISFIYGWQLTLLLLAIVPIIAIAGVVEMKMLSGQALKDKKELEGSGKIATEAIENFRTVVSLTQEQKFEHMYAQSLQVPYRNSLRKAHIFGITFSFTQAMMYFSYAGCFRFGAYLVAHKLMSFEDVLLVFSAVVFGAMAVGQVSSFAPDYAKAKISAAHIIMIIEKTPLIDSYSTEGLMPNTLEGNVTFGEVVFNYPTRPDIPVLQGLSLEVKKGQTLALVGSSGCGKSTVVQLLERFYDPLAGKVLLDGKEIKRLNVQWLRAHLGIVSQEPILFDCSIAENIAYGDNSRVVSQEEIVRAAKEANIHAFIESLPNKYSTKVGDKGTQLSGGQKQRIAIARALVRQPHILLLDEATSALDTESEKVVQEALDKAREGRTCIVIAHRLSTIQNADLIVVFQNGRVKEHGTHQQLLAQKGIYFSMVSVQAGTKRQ

## C=C(C)[C@@H]1CCC(C)=C[C@H]1c1c(O)cc(CCCCC)cc1O [CBD isolate, cannabidiol]
[1]; patient 4, IC50 dose of extract + 100 μM/mL carboplatin
  decrease in viable organoids compared to carboplatin alone: about 32%
[1]; patient 12, grade 3, IC50 dose of extract + 4 nM/mL paclitaxel
  decrease in the % of viable organoids when 4 nM/mL paclitaxel is combined with extract: up to 19%
[2]; coadministration of ketoconazole (CYP3A4 inhibitor)
  effect on peak plasma drug concentrations: nearly doubled
[2]; coadministration of rifampicin (CYP3A4 inducer)
  effect on peak plasma concentrations: significantly reduced
[2]; coadministration with high fat food
  increase of Cmax: up to 5 fold
[2]; delivery via nasal mucosa
  Tmax: approximately 10 minutes
[2]; oral
  maximum plasma concentration (time): 2.5 to 5 h
  maximum plasma concentration (time), delayed in some individuals: up to 6 hours
[2]; orally delivered, consumed with CBDA
  serum bioavailability: increase substantially
[2]; oromucosal or sublingual delivery
  maximum plasma concentration (time): 1.6 h
[2]; rectal suppository delivery
  bioavailability: 51-60%
[3]; current literature
  dose with clinically significant drug interactions: 20 mg/kg/day
[3]; humans, chronic use
  doses established as well tolerated: up to 1,500 mg/day
[3]; published case study
  dose with meaningful interactions with Warfarin: 10 mg/kg
[4]
  efficacy compared to native pH: virtually no change
P-glycoprotein
  P-glycoprotein-mediated drug transport: significantly inhibits
[5]; day 10, about 30 mg/kg, 3 times/week
  decrease in average tumor volume vs day 0: not as responsive
[5]; day 14, 6 doses total of about 30 mg/kg
  decrease in average tumor volume compared to starting size: less than 50%
[6]; read-out: IC50s for Patient 4 Organoids (Grade 2 Endometrial Cancer)
  IC50: 3.09 µg/mL (≈ 9.83 µM)
[6]; read-out: IC50s for Patient 12 Organoids (Grade 3 Endometrial Cancer)
  IC50: 2.92 µg/mL (≈ 9.29 µM)
[6]; read-out: dose at which 50% viability of organoids was obtained
  IC50: ~3 µg/mL (≈ 9.54 µM)
[6]; grade 1, 10 μg/mL
  viable organoids / response in words: does not show complete response
[6]; grade 1 lower responder patient, 15 and 20 μg/mL
  response of organoids: complete response
[6]; grade 2
  viable organoids in words: virtually zero
[6]; grade 3
  viable organoids in words: virtually zero
[6]; grade 3 representative sample (FIG. 7)
  dose at which 50% viability of organoids was obtained: about 3 μg/mL
CYP2C19
  inhibition of CYP2C19 enzymes: potent inhibitor
